Laboratory results from patent US20230114728A1 (Venatorx Pharmaceuticals, Inc., priority 2019, published 2023).
In brackets after ≈: the same amount, converted by molar mass.

How the values were obtained:
P. aeruginosa PBP3 = target: T1, P. aeruginosa PBP3 (Pseudomonas aeruginosa, UniProt G3XD46); experiment: Bocillin-FL fluorescence polarization competition binding assay, P. aeruginosa PBP3; settings: fluorescence polarization competition binding assay using Bocillin-FL
T1 construct: made in house
T1 sequence (G3XD46 whole entry): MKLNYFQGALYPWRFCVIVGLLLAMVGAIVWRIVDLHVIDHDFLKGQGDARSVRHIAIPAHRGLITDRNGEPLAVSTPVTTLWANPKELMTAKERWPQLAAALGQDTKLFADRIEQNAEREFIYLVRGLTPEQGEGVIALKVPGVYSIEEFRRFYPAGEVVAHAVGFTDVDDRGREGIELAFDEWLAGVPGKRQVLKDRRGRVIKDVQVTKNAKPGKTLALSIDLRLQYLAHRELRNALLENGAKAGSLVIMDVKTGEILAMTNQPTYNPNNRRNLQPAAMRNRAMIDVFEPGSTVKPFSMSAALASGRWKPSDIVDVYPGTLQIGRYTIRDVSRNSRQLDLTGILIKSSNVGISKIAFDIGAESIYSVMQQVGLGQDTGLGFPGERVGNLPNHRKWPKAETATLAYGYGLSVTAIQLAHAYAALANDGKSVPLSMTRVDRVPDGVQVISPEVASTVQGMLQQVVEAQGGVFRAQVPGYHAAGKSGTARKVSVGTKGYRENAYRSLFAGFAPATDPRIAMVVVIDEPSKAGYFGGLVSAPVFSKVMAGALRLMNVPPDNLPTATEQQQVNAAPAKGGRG
Procedure, shortened: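 Inhibitor competition with Bocillin-FL for P. aeruginosa PBP3 was followed by fluorescence polarization on a Cytation3 (BioTek) reader, using g-factor 0.96, 490 nm excitation and 520 nm emission. The enzyme was at 0.75 μM and the probe at 0.1 μM in Hepes/NaCl/glycerol buffer, 80 μl per well. FP was recorded immediately after probe addition for up to 60 minutes. Potency was expressed as EC50, the concentration that reduces bound probe by 50%.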

E. coli 901C = experiment: Broth microdilution MIC in CAMHB; assay type: cell-based; settings: Escherichia coli; E. coli 901C (hyper-permeable); MHB; read-out: Minimum Inhibitory Concentration, E. coli 901C
Procedure, shortened: (§1)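 Lowest compound concentration with no visible growth after 16-20 h at 37 °C defines MIC. Plates of 2-fold serial dilutions in cation-adjusted Mueller Hinton broth received 2-8×10^5 CFU/mL of exponentially grown cells, per CLSI methods; panel spans reference, hyper-permeable and efflux-pump-deleted strains.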

[1] = system: P. aeruginosa (ΔmexAB-oprM); experiment: Broth microdilution MIC in CAMHB; assay type: cell-based; settings: Pseudomonas aeruginosa, read-out: Minimum Inhibitory Concentration, P. aeruginosa ΔmexAB-OprM
Procedure, shortened: as §1

A. baumannii ATCC 19606 = experiment: Broth microdilution MIC in CAMHB; assay type: cell-based; settings: Acinetobacter baumannii, ATCC19606; MHB; read-out: Minimum Inhibitory Concentration, A. baumannii ATCC 19606
Procedure, shortened: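 Hyper-permeable or efflux-deficient strains serve to probe outer-membrane penetration. Growth inhibition is scored visually after 16-20 h at 37° C in CAMHB, starting from 2-8×10^5 CFU/mL.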

[2] = system: K. pneumoniae UMM producing SHV-5 and KPC-2; experiment: Broth microdilution MIC in CAMHB; assay type: cell-based; settings: Klebsiella pneumoniae, read-out: Minimum Inhibitory Concentration, K. pneumoniae UMM
Procedure, shortened: as §1

E. coli AG100 = experiment: Broth microdilution MIC in CAMHB; assay type: cell-based; settings: Escherichia coli; E. coli AG100 (wild-type parent); MHB; read-out: Minimum Inhibitory Concentration, E. coli AG100
Procedure, shortened: as §1

[3] = system: K. pneumoniae 848844 producing SHV-11 and KPC-2; experiment: Broth microdilution MIC in CAMHB; assay type: cell-based; settings: Klebsiella pneumoniae, read-out: Minimum Inhibitory Concentration, K. pneumoniae 848844
Procedure, shortened: as §1

P. aeruginosa ATCC 27853 = experiment: Broth microdilution MIC in CAMHB; assay type: cell-based; settings: Pseudomonas aeruginosa, ATCC27853; MHB; read-out: Minimum Inhibitory Concentration, P. aeruginosa ATCC 27853
Procedure, shortened: as §1

E. coli K12 PBP3 = target: T2, E. coli K12 PBP3 (Escherichia coli, UniProt P0AD68); experiment: biochemical; assay type: binding
T2 construct: made in house
T2 sequence (P0AD68 1-577): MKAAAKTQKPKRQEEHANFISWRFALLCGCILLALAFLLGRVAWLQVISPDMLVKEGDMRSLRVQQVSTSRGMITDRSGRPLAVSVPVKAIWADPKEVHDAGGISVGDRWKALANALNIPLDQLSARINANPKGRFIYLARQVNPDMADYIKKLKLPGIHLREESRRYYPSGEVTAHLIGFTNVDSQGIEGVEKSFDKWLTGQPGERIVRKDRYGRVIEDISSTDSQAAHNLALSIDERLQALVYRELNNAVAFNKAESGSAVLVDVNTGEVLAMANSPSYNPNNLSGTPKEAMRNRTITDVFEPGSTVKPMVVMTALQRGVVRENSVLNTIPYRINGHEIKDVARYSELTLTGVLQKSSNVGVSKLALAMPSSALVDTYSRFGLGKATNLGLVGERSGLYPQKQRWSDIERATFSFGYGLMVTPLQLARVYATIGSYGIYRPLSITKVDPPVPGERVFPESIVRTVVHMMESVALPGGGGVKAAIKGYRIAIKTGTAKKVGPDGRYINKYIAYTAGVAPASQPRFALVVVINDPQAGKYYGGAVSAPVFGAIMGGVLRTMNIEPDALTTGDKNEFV
Procedure, shortened: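 A. baumannii PBP2 (2.5 μM) and PBP3 (0.2 μM) were run in 25 mM Tris pH 8.0 buffer with Tween 20; E. coli PBP3 (1.5 μM) and N. gonorrhoeae PBP2 ([…]) in 50 mM Hepes pH 8.0 buffer.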

| SMILES | P. aeruginosa PBP3 Potency (P. aeruginosa PBP3) | MIC (E. coli 901C) [µg/mL] | MIC [1] [µg/mL] | MIC (A. baumannii ATCC 19606) [µg/mL] | MIC [2] [µg/mL] | MIC (E. coli AG100) [µg/mL] | MIC [3] [µg/mL] | MIC (P. aeruginosa ATCC 27853) [µg/mL] | EC50 (E. coli K12 PBP3) [µM] |
| --- | --- | --- | --- | --- | --- | --- | --- | --- | --- |
| CCN1CCN(C(=O)NC(C(=O)N[C@H]2Cc3cccc(C(=O)O)c3OB2O)c2cc(F)c(C(=O)O)c(F)c2)C(=O)C1=O (stereo partly drawn) [Example 141, (3R)-3-(2-(4-carboxy-3,5-difluorophenyl)-2-(4-ethyl-2,3-dioxopiperazine-1-carboxamido)acetamido)-2-hydroxy-3,4-dihydro-2H-benzo[e][1,2]oxaborinine-8-carboxylic acid] | D (D represents a potency <10 μM) | < 0.25 | 32 to 64 (≈ 54.4 to 109 µM) | > 128 | 32 to 64 (≈ 54.4 to 109 µM) | 32 to 64 (≈ 54.4 to 109 µM) | > 128 | > 128 | < 30 |
| NCCN1CCN(C(=O)N[C@H](C(=O)N[C@H]2Cc3cccc(C(=O)O)c3OB2O)c2cc(F)c(O)c(F)c2F)C(=O)C1=O (single isomer, unassigned) [Example 167] | D (D represents a potency <10 μM) | 2 to 4 (≈ 3.37 to 6.74 µM) | 8 to 16 (≈ 13.5 to 27 µM) | > 128 | 32 to 64 (≈ 53.9 to 108 µM) | 32 to 64 (≈ 53.9 to 108 µM) | > 128 | > 128 | 30 to 500 |
| NCCN1CCN(C(=O)N[C@H](C(=O)N[C@H]2Cc3cccc(C(=O)O)c3OB2O)c2cc(F)c(O)c(F)c2)C(=O)C1=O (single isomer, unassigned) [Example 158] | C (C represents a potency between 10 and 30 μM) | 2 to 4 (≈ 3.48 to 6.95 µM) | 32 to 64 (≈ 55.6 to 111 µM) | > 128 | > 128 | > 128 | > 128 | > 128 | 30 to 500 |
| CCN1CCN(C(=O)N[C@H](C(=O)N[C@H]2Cc3cccc(C(=O)O)c3OB2O)c2cc(F)c(C(=O)O)cc2Cl)C(=O)C1=O (single isomer, unassigned) [Example 149] | C (C represents a potency between 10 and 30 μM) | 0.5 to 1 (≈ 0.827 to 1.65 µM) | > 128 | > 128 | > 128 | > 128 | > 128 | > 128 | 30 to 500 |
| CCN1CCN(C(=O)N[C@H](C(=O)N[C@H]2Cc3cccc(C(=O)O)c3OB2O)c2ccc(C(=O)O)c(F)c2F)C(=O)C1=O (single isomer, unassigned) [Example 139] | D (D represents a potency <10 μM) | < 0.25 | 8 to 16 (≈ 13.6 to 27.2 µM) | > 128 | 32 to 64 (≈ 54.4 to 109 µM) | 32 to 64 (≈ 54.4 to 109 µM) | > 128 | > 128 | < 30 |
| CCN1CCN(C(=O)NC(C(=O)N[C@H]2Cc3cccc(C(=O)O)c3OB2O)c2cccc(CNS(N)(=O)=O)c2)C(=O)C1=O (stereo partly drawn) [Example 107, (3R)-3-(2-(4-ethyl-2,3-dioxopiperazine-1-carboxamido)-2-(3-((sulfamoylamino)methyl)phenyl)acetamido)-2-hydroxy-3,4-dihydro-2H-benzo[e][1,2]oxaborinine-8-carboxylic acid] | D (D represents a potency <10 μM) | 0.5 to 1 (≈ 0.811 to 1.62 µM) | 8 to 16 (≈ 13 to 26 µM) | > 128 | > 128 | > 128 | > 128 | > 128 | 30 to 500 |
| NCCN1CCN(C(=O)NC(C(=O)N[C@H]2Cc3cccc(C(=O)O)c3OB2O)c2cc(F)c(O)cc2Cl)C(=O)C1=O (stereo partly drawn) [Example 109, (3R)-3-(2-(4-(2-aminoethyl)-2,3-dioxopiperazine-1-carboxamido)-2-(2-chloro-5-fluoro-4-hydroxyphenyl)acetamido)-2-hydroxy-3,4-dihydro-2H-benzo[e][1,2]oxaborinine-8-carboxylic acid] | D (D represents a potency <10 μM) | 2 to 4 (≈ 3.38 to 6.76 µM) | 8 to 16 (≈ 13.5 to 27 µM) | > 128 | 32 to 64 (≈ 54.1 to 108 µM) | > 128 | > 128 | > 128 | < 30 |
| CCN1CCN(C(=O)NC(C(=O)N[C@H]2Cc3cccc(C(=O)O)c3OB2O)c2cc(F)c(O)cc2F)C(=O)C1=O (stereo partly drawn) [Example 104, (3R)-3-(2-(2,5-difluoro-4-hydroxyphenyl)-2-(4-ethyl-2,3-dioxopiperazine-1-carboxamido)acetamido)-2-hydroxy-3,4-dihydro-2H-benzo[e][1,2]oxaborinine-8-carboxylic acid] | D (D represents a potency <10 μM) | < 0.25 | 8 to 16 (≈ 14.3 to 28.6 µM) | > 128 | 32 to 64 (≈ 57.1 to 114 µM) | 32 to 64 (≈ 57.1 to 114 µM) | > 128 | > 128 | < 30 |
| NCCN1CCN(C(=O)N[C@@H](C(=O)N[C@H]2Cc3cccc(C(=O)O)c3OB2O)c2cccc(NS(N)(=O)=O)c2)C(=O)C1=O (single isomer, unassigned) [Example 114] | D (D represents a potency <10 μM) | 2 to 4 (≈ 3.24 to 6.48 µM) | 2 to 4 (≈ 3.24 to 6.48 µM) | > 128 | 32 to 64 (≈ 51.8 to 104 µM) | 32 to 64 (≈ 51.8 to 104 µM) | 32 to 64 (≈ 51.8 to 104 µM) | > 128 | 30 to 500 |
| CCN1CCN(C(=O)NC(C(=O)N[C@H]2Cc3cccc(C(=O)O)c3OB2O)c2cc(F)c(O)cc2Cl)C(=O)C1=O (stereo partly drawn) [Example 103, (3R)-3-(2-(2-chloro-5-fluoro-4-hydroxyphenyl)-2-(4-ethyl-2,3-dioxopiperazine-1-carboxamido)acetamido)-2-hydroxy-3,4-dihydro-2H-benzo[e][1,2]oxaborinine-8-carboxylic acid] | D (D represents a potency <10 μM) | < 0.25 | 8 to 16 (≈ 13.9 to 27.7 µM) | > 128 | 32 to 64 (≈ 55.5 to 111 µM) | 32 to 64 (≈ 55.5 to 111 µM) | > 128 | > 128 | < 30 |
| CCN1CCN(C(=O)NC(C(=O)N[C@H]2Cc3cccc(C(=O)O)c3OB2O)c2cc(Cl)c(O)cc2F)C(=O)C1=O (stereo partly drawn) [Example 101, (3R)-3-(2-(5-chloro-2-fluoro-4-hydroxyphenyl)-2-(4-ethyl-2,3-dioxopiperazine-1-carboxamido)acetamido)-2-hydroxy-3,4-dihydro-2H-benzo[e][1,2]oxaborinine-8-carboxylic acid] | D (D represents a potency <10 μM) | < 0.25 | 8 to 16 (≈ 13.9 to 27.7 µM) | > 128 | 32 to 64 (≈ 55.5 to 111 µM) | 32 to 64 (≈ 55.5 to 111 µM) | > 128 | > 128 | < 30 |
| NCCCN1CCN(C(=O)N[C@@H](C(=O)N[C@H]2Cc3cccc(C(=O)O)c3OB2O)c2cccc(NS(N)(=O)=O)c2)C(=O)C1=O [Example 117, (R)-3-((R)-2-(4-(3-aminopropyl)-2,3-dioxopiperazine-1-carboxamido)-2-(3-(sulfamoylamino)phenyl)acetamido)-2-hydroxy-3,4-dihydro-2H-benzo[e][1,2]oxaborinine-8-carboxylic acid] | D (D represents a potency <10 μM) | 2 to 4 (≈ 3.17 to 6.33 µM) | 2 to 4 (≈ 3.17 to 6.33 µM) | 32 to 64 (≈ 50.7 to 101 µM) | 32 to 64 (≈ 50.7 to 101 µM) | 32 to 64 (≈ 50.7 to 101 µM) | 32 to 64 (≈ 50.7 to 101 µM) | 32 to 64 (≈ 50.7 to 101 µM) | 30 to 500 |
| NCCN1CCN(C(=O)NC(C(=O)N[C@H]2Cc3cccc(C(=O)O)c3OB2O)c2ccc(C(=O)O)c(Cl)c2)C(=O)C1=O (stereo partly drawn) [Example 153, (3R)-3-(2-(4-(2-aminoethyl)-2,3-dioxopiperazine-1-carboxamido)-2-(4-carboxy-3-chlorophenyl)acetamido)-2-hydroxy-3,4-dihydro-2H-benzo[e][1,2]oxaborinine-8-carboxylic acid] | D (D represents a potency <10 μM) | 0.5 to 1 (≈ 0.831 to 1.66 µM) | 8 to 16 (≈ 13.3 to 26.6 µM) | > 128 | 32 to 64 (≈ 53.2 to 106 µM) | 32 to 64 (≈ 53.2 to 106 µM) | > 128 | 32 to 64 (≈ 53.2 to 106 µM) | < 30 |
| NCCN1CCN(C(=O)N[C@H](C(=O)N[C@H]2Cc3cccc(C(=O)O)c3OB2O)c2c(F)cc(O)cc2F)C(=O)C1=O (single isomer, unassigned) [Example 110] | B (B represents a potency between 30 μM and 500 μM inclusive) | 8 to 16 (≈ 13.9 to 27.8 µM) | 32 to 64 (≈ 55.6 to 111 µM) | > 128 | > 128 | > 128 | > 128 | > 128 | 30 to 500 |
